Results taken from US20230172940A1, “METHODS OF EXTENDING LIFESPAN BY ADMINISTERING FERROPTOSIS INHIBITORS” (COLLABORATIVE MEDICINAL DEVELOPMENT, LLC, priority 2020, published 2023).
Structures can show the parent of a compound that is named as a salt.

Columns and labels:
Format in all cases: in vivo, Caenorhabditis elegans
total glutathione = assay: Quantification of total glutathione; settings: for glutathione depletion induced by DEM: Day 4 animals; for age-dependent decrease in glutathione: treated from L4, assayed on Day 4 of adult life
Protocol: Measurement of total glutathione was based on established protocols and is based on a kinetic spectrophotometric assay using the reaction between GSH and 5^o5′-dithio-bis (2-nitrobenzoic acid) (DTNB) measured at 412 nm (Caito and Aschner^o 2015; Rahman et al.^o 2006). All reagents were freshly prepared prior to the assay and for each estimate 50 adults were collected in 200 μL of S-basal (Brenner^o 1974) in 1.7 ml microfuge tubes. Animals were washed twice in S-basal^o pelleted via centrifugation and total volume reduced to 20 μL. A 50 μL aliquot of Extraction Buffer was added then the samples were frozen in Liquid N2 and store at −80° C. until required. Extraction buffer consisted of 6 mg/mL 5-sulfosalicylic acid dehydrate^o 0.1% v/v Triton X-100 and Complete^o EDTA-free Proteinase inhibitor cocktail (Roche) in KPE buffer (0.1 M potassium phosphate buffer and 5 mM EDTA at pH 7.5).
Samples were homogenized with a Bioruptor Next Gen (Diagenode) bath sonicator^o set on HIGH and cooled to 4° C.^o using 10 cycles of 10 seconds ON and 10 seconds OFF. Supernatant was collected following a 14K×g spin at 4° C. Assays were performed in 96 well microplates (clear polystyrene^o flat-bottomed^o Greiner bio-one)^o in a total volume of 200 μL per well. To each well was added 50 μL of lysate supernatant^o 50 μL of milli-Q H2O and then 100 μL of GA buffer (NADPH 400 μM^o glutathione reductase 1 U/mL and 0.3 mM DTNB in KPE buffer diluent). Reactions were incubated for 1-2 min at room temperature and then absorbance measured at 412 nm for 10 min with 1 min interval using a Powerwave plate spectrophotometer (BioTek). The rate of change in absorbance per minute is linearly proportional to the total concentration of GSH. Total GSH in the samples was interpolated from using linear regression from a standard curve of known GSH concentrations (0 to 1 μM) run in tandem. In parallel^o the concentration of total protein per sample was also determined by a Bicinchoninic acid (BCA) assay (Pierce) using the manufacturers protocol. Total GSH estimates were then normalized for protein load thous accounting for any size differences between populations. Within experiment results are presented as relative glutathione levels^o where results are normalized to the mean of the starting population.

malondialdehyde (MDA) = assay: Lipid peroxidation: malondialdehyde (TBARS assay); settings: for aged-related increase in MDA: aging at 25° C
Protocol: Measurement of malondialdehyde (MDA) was performed using a Thiobarbituric acid reactive substances (TBARS) assay kit (10009055^o Caymen Chemical) as per manufacturer instructions using reduced reaction volumes of 1 mL. For C. elegans samples with acute glutathione depletion^o Day 1 adults were treated with and without 20 mM DEM for 6 h at 25° C. prior to collection. For aging^o animals were aged at 25° C. and treated with Lip-1 or SIH as previously described. Replicate samples were collected^o washed twice in S-basal^o pelleted by centrifugation. Following removal of excess buffer samples (^˜40 μL) were frozen in liquid-N2 and stored at −80° C. until needed. Samples were then homogenized via a Bioruptor bath sonicator (Diagenode^o set on ‘high power’ with 10 cycles of 10 s pulses with a 10 s pause between pulses^o at 4° C.)^o then centrifuged at 21^o500×g at 4° C. for 30 min and the supernatant retained. The concentration of protein was determined using a BCA assay kit (Pierce) and equivalent aliquots of 20-25 μg total protein used for subsequent measurements.

DAF-16 = DAF-16 localization (reporter strain TJ356); settings: for DAF-16 nuclear translocation: 250 μM SIH, 200 μM Lip-1
Protocol: Wild type (strain N2)^o the temperature sensitive-sterile strain TJ1060: spe-9(hc88); fer-15(b26) and the DAF-16 reporter strain TJ356: zls356 [Pdaf-16::daf-16a/b::gfp+rol-6(su1006)] were obtained from the Caenorhabditis Genetics Center. The wild type strain was maintained at 20° C. on standard nematode growth media (NGM) and aged at 20° C. or 25° C. as required. TJ1060 was maintained at 16° C. and also aged at 20° C. or 25° C. as required. TJ1060 was predominately used to remove the inconvenience of progeny production and can be regarded as a proxy for wild type.
We considered whether the higher levels of glutathione in animals treated with SIH ( ) could reflect a hormetic response to sublethal oxidative stress, which has been described for SIH at low concentrations (10 μM) combining with the cellular labile iron pool within hepatocellular carcinoma cells in culture. […] To further discount possible off-target stress responses elicited by our interventions, we interrogated DAF-16 localization. Nuclear localization of the DAF-16 transcription factor is known to be an indicator of […], which occurs under stress conditions. […] Taken together, these findings argue against hormesis mediating the benefits of SIH or Lip-1 under these conditions in C. elegans.

## CCOC(=O)/C=C\C(=O)OCC [DEM, Diethyl maleate]
Total glutathione; 10 mM DEM, 24-hour exposure, 4-day old adult worms
  depletion of glutathione: ≈ 50%
Malondialdehyde (MDA); acute glutathione depletion by DEM exposure (20 mM, 6 h, Day 1 adults)
  relative amounts of MDA: marked increase
DAF-16; 10 mM DEM, positive control
  DAF-16 nuclear localization: did induce nuclear localization of DAF-16

## O=C(N/N=C/c1ccccc1O)c1ccncc1 [SIH, Salicylaldehyde isonicotinoyl hydrazone]
Total glutathione
  glutathione depletion induced by DEM: mitigated the glutathione depletion induced by DEM
  age-dependent decrease in glutathione: prevented the age-dependent decrease in glutathione
Malondialdehyde (MDA)
  aged-related increase in MDA: ameliorated
DAF-16
  DAF-16 nuclear translocation: Neither 250 μM SIH nor 200 μM Lip-1 induced DAF-16 nuclear translocation

## Clc1cccc(CNC2=Nc3ccccc3NC23CCNCC3)c1 [Lip-1, N-[(3-chlorophenyl)methyl]-spiro[piperidine-4,2′(1′H)-quinoxalin]-3′-amine]
Total glutathione
  glutathione depletion induced by DEM: did not prevent the fall in glutathione
  age-dependent decrease in glutathione: did not prevent the fall in glutathione
Malondialdehyde (MDA)
  aged-related increase in MDA: ameliorated
DAF-16
  DAF-16 nuclear translocation: Neither 250 μM SIH nor 200 μM Lip-1 induced DAF-16 nuclear translocation
